According to ChEMBL document CHEMBL6177951, “Synthesis and anti-MRSA activity of quaternized small molecule antimicrobial peptide mimics based on norharmane” (Eur J Med Chem, 2025):
Converted amounts (≈) assume the structure as drawn. The source made the active and inactive calls. The calls are words filed in the database; no cut-off is given here.

How the values were obtained:
[1] = system: Staphylococcus aureus; experiment: Antibacterial activity against methicillin-resistant Staphylococcus aureus ATCC 33591 assessed as inhibition of bacterial growth incubated for 14 hrs by two-fold serial dilution method; assay type: functional
[2] = system: Staphylococcus aureus; experiment: Antibacterial activity against Staphylococcus aureus ATCC 29213 assessed as inhibition of bacterial growth incubated for 14 hrs by two-fold serial dilution method; assay type: functional
[3] = system: Staphylococcus aureus; experiment: Antibacterial activity against Staphylococcus aureus ATCC 25923 assessed as inhibition of bacterial growth incubated for 14 hrs by two-fold serial dilution method; assay type: functional
[4] = system: Staphylococcus aureus; experiment: Antibacterial activity against methicillin-resistant Staphylococcus aureus ATCC 43300 assessed as inhibition of bacterial growth incubated for 14 hrs by two-fold serial dilution method; assay type: functional
[5] = system: Staphylococcus aureus; experiment: Antibacterial activity against Staphylococcus aureus CMCC 26003 assessed as inhibition of bacterial growth incubated for 14 hrs by two-fold serial dilution method; assay type: functional
[6] = system: Staphylococcus aureus; experiment: Antibacterial activity against methicillin-resistant Staphylococcus aureus clinical isolate M-17 incubated for 14 hrs by two-fold serial dilution method; assay type: functional
[7] = system: Staphylococcus aureus; experiment: Antibacterial activity against methicillin-resistant Staphylococcus aureus clinical isolate M-15 incubated for 14 hrs by two-fold serial dilution method; assay type: functional
[8] = system: Staphylococcus aureus; experiment: Antibacterial activity against methicillin-resistant Staphylococcus aureus clinical isolate M-14 incubated for 14 hrs by two-fold serial dilution method; assay type: functional
[9] = system: Staphylococcus aureus; experiment: Antibacterial activity against methicillin-resistant Staphylococcus aureus clinical isolate M-20 incubated for 14 hrs by two-fold serial dilution method; assay type: functional
[10] = system: Staphylococcus aureus; experiment: Antibacterial activity against methicillin-resistant Staphylococcus aureus clinical isolate M-23 incubated for 14 hrs by two-fold serial dilution method; assay type: functional
[11] = system: Staphylococcus aureus; experiment: Antibacterial activity against methicillin-resistant Staphylococcus aureus clinical isolate M-19 incubated for 14 hrs by two-fold serial dilution method; assay type: functional
[12] = system: Staphylococcus aureus; experiment: Antibacterial activity against methicillin-resistant Staphylococcus aureus clinical isolate M-22 incubated for 14 hrs by two-fold serial dilution method; assay type: functional
[13] = system: Staphylococcus aureus; experiment: Antibacterial activity against methicillin-resistant Staphylococcus aureus clinical isolate M-16 incubated for 14 hrs by two-fold serial dilution method; assay type: functional
[14] = system: Staphylococcus aureus; experiment: Antibacterial activity against methicillin-resistant Staphylococcus aureus clinical isolate M-18 incubated for 14 hrs by two-fold serial dilution method; assay type: functional
[15] = system: Staphylococcus aureus; experiment: Antibacterial activity against methicillin-resistant Staphylococcus aureus clinical isolate M-21 incubated for 14 hrs by two-fold serial dilution method; assay type: functional
[16] = system: Staphylococcus aureus; experiment: Antibacterial activity against methicillin-resistant Staphylococcus aureus clinical isolate M-13 incubated for 14 hrs by two-fold serial dilution method; assay type: functional
[17] = system: Staphylococcus aureus; experiment: In vivo antibacterial activity against methicillin-resistant Staphylococcus aureus infected in female Kunming mouse skin infection model assessed as recovery of dorsal surface at 5 to 20 mg/kg measured after 48 hrs; assay type: functional, organism-based; details: dose 5-20 mg/kg
[18] = system: Staphylococcus aureus; experiment: Antibacterial activity against Staphylococcus aureus ATCC 33591 assessed as log reduction in bacterial growth at 1 times MIC measured at 6 hrs by time-kill kinetic assay; assay type: functional
[19] = system: Staphylococcus aureus; experiment: In vivo antibacterial activity against methicillin-resistant Staphylococcus aureus infected in female Kunming mouse skin infection model assessed as reduction in inflammatory cells at 5 to 20 mg/kg measured after 48 hrs by H and E staining based analysis; assay type: functional, organism-based; details: dose 5-20 mg/kg
[20] = system: Staphylococcus aureus; experiment: In vivo antibacterial activity against methicillin-resistant Staphylococcus aureus infected in female Kunming mouse skin infection model assessed as log reduction in bacterial load at 5 mg/kg measured after 48 hrs (reference value: 14.34 log10CFU/g); assay type: functional
[21] = system: Staphylococcus aureus; experiment: Antibacterial activity against Staphylococcus aureus ATCC 33591 assessed as resistance development by measuring fold increase in MIC at 0.5 times MIC incubated for 8 hrs and measured after 15 passages; assay type: functional

CC[n+]1ccc2c3ccccc3n(CC[N+](C)(C)CC)c2c1.[Br-].[Br-]
MIC [1]: > 128 µg/mL
MIC [2]: > 128 µg/mL
MIC [3]: 128 µg/mL
MIC [4]: > 128 µg/mL
MIC [5]: > 128 µg/mL

c1ccc2c(c1)[nH]c1cnccc12 [NORHARMANE]
MIC [1]: 64 µg/mL (≈ 381 µM)
MIC [2]: 64 µg/mL (≈ 381 µM)
MIC [3]: 32 µg/mL (≈ 190 µM)
MIC [4]: 64 µg/mL (≈ 381 µM)
MIC [5]: 64 µg/mL (≈ 381 µM)

CC[N+](C)(CC)CCn1c2ccccc2c2cc[n+](C)cc21.[I-].[I-]
MIC [1]: > 128 µg/mL
MIC [2]: > 128 µg/mL
MIC [3]: 128 µg/mL
MIC [4]: > 128 µg/mL
MIC [5]: > 128 µg/mL

c1ccc2c3c([nH]c2c1)CNCC3 [TRYPTOLINE]
MIC [1]: 128 µg/mL (≈ 743 µM)
MIC [2]: > 128 µg/mL
MIC [3]: 128 µg/mL (≈ 743 µM)
MIC [4]: 128 µg/mL (≈ 743 µM)
MIC [5]: 128 µg/mL (≈ 743 µM)

C[n+]1ccc2c3ccccc3n(CCCCCCCCCCn3c4ccccc4c4cc[n+](C)cc43)c2c1.[I-].[I-]
MIC [6]: 2 µg/mL
MIC [7]: 2 µg/mL
MIC [8]: 1 µg/mL
MIC [9]: 1 µg/mL
MIC [10]: 2 µg/mL
MIC [11]: 2 µg/mL
MIC [1]: 0.5 µg/mL
MIC [12]: 1 µg/mL
MIC [2]: 1 µg/mL
MIC [13]: 1 µg/mL
MIC [3]: 2 µg/mL
MIC [14]: 2 µg/mL
MIC [15]: 2 µg/mL
MIC [16]: 1 µg/mL
MIC [4]: 2 µg/mL
MIC [5]: 0.5 µg/mL

CN[C@H](CC(C)C)C(=O)N[C@H]1C(=O)N[C@@H](CC(N)=O)C(=O)N[C@H]2C(=O)N[C@H]3C(=O)N[C@H](C(=O)N[C@H](C(=O)O)c4cc(O)cc(O)c4-c4cc3ccc4O)[C@H](O)c3ccc(c(Cl)c3)Oc3cc2cc(c3O[C@@H]2O[C@H](CO)[C@@H](O)[C@H](O)[C@H]2O[C@H]2C[C@](C)(N)[C@H](O)[C@H](C)O2)Oc2ccc(cc2Cl)[C@H]1O [VANCOMYCIN]
Activity [17]: Active
Activity [18]: 2.74 log10CFU/ml
Activity [19]: Active
Activity [20]: 4.99 log10CFU/g

c1ccc2c(c1)c1ccncc1n2CCCCCCCCCCCCn1c2ccccc2c2ccncc21
MIC [1]: > 128 µg/mL
MIC [2]: > 128 µg/mL
MIC [3]: > 128 µg/mL
MIC [4]: > 128 µg/mL
MIC [5]: > 128 µg/mL

CCCCC[n+]1ccc2c3ccccc3n(CCN(CC)CC)c2c1.[Br-]
MIC [1]: 32 µg/mL
MIC [2]: 128 µg/mL
MIC [3]: 8 µg/mL
MIC [4]: 32 µg/mL
MIC [5]: 16 µg/mL

CCCC[n+]1ccc2c3ccccc3n(CCN(CC)CC)c2c1.[Br-]
MIC [1]: 64 µg/mL
MIC [2]: 128 µg/mL
MIC [3]: 16 µg/mL
MIC [4]: 64 µg/mL
MIC [5]: 16 µg/mL

C[n+]1ccc2c3ccccc3n(CCCCCCCCCn3c4ccccc4c4cc[n+](C)cc43)c2c1.[I-].[I-]
MIC [6]: 4 µg/mL
MIC [7]: 4 µg/mL
MIC [8]: 1 µg/mL
MIC [9]: 2 µg/mL
MIC [10]: 4 µg/mL
MIC [11]: 4 µg/mL
MIC [1]: 0.5 µg/mL
MIC [12]: 2 µg/mL
MIC [2]: 2 µg/mL
MIC [13]: 2 µg/mL
MIC [3]: 4 µg/mL
MIC [14]: 4 µg/mL
MIC [15]: 4 µg/mL
MIC [16]: 1 µg/mL
MIC [4]: 4 µg/mL
MIC [5]: 0.5 µg/mL

CCC[n+]1ccc2c3ccccc3n(CC[N+](C)(C)CCC)c2c1.[Br-].[Br-]
MIC [1]: > 128 µg/mL
MIC [2]: > 128 µg/mL
MIC [3]: 64 µg/mL
MIC [4]: > 128 µg/mL
MIC [5]: > 128 µg/mL

C[n+]1ccc2c3ccccc3n(CCCCCCCCCCCCn3c4ccccc4c4cc[n+](C)cc43)c2c1.[I-].[I-]
MIC [6]: 1 µg/mL
MIC [7]: 1 µg/mL
MIC [8]: 1 µg/mL
MIC [9]: 1 µg/mL
MIC [10]: 1 µg/mL
MIC [11]: 1 µg/mL
MIC [1]: 0.5 µg/mL
MIC [12]: 1 µg/mL
MIC [2]: 0.5 µg/mL
MIC [13]: 1 µg/mL
MIC [3]: 1 µg/mL
MIC [14]: 1 µg/mL
MIC [15]: 1 µg/mL
MIC [16]: 1 µg/mL
MIC [4]: 1 µg/mL
MIC [5]: 0.5 µg/mL

CCN(CC)CCn1c2ccccc2c2cc[n+](CC)cc21.[Br-]
MIC [1]: 128 µg/mL
MIC [2]: > 128 µg/mL
MIC [3]: 32 µg/mL
MIC [4]: > 128 µg/mL
MIC [5]: 32 µg/mL

CN(C)CCn1c2ccccc2c2ccncc21
MIC [1]: 128 µg/mL (≈ 535 µM)
MIC [2]: 64 µg/mL (≈ 267 µM)
MIC [3]: 64 µg/mL (≈ 267 µM)
MIC [4]: > 128 µg/mL
MIC [5]: > 128 µg/mL

CC[n+]1ccc2c3ccccc3n(CC[N+](CC)(CC)CC)c2c1.[Br-].[Br-]
MIC [1]: > 128 µg/mL
MIC [2]: > 128 µg/mL
MIC [3]: 128 µg/mL
MIC [4]: > 128 µg/mL
MIC [5]: > 128 µg/mL

CCN(CC)CCn1c2ccccc2c2ccncc21
MIC [1]: 128 µg/mL (≈ 479 µM)
MIC [2]: 128 µg/mL (≈ 479 µM)
MIC [3]: 64 µg/mL (≈ 239 µM)
MIC [4]: 128 µg/mL (≈ 479 µM)
MIC [5]: 128 µg/mL (≈ 479 µM)

c1ccc2c(c1)c1ccncc1n2CCCCCCCCCCn1c2ccccc2c2ccncc21
MIC [1]: > 128 µg/mL
MIC [2]: > 128 µg/mL
MIC [3]: > 128 µg/mL
MIC [4]: > 128 µg/mL
MIC [5]: > 128 µg/mL

c1ccc2c(c1)c1ccncc1n2CCCCCCCCCn1c2ccccc2c2ccncc21
MIC [1]: > 128 µg/mL
MIC [2]: > 128 µg/mL
MIC [3]: > 128 µg/mL
MIC [4]: > 128 µg/mL
MIC [5]: > 128 µg/mL

CCn1cc(C(=O)O)c(=O)c2cc(F)c(N3CCNCC3)cc21 [NORFLOXACIN]
fold change (FC) [21]: 16

c1ccc2c(c1)c1ccncc1n2CCCCCCCCCCCn1c2ccccc2c2ccncc21
MIC [1]: > 128 µg/mL
MIC [2]: > 128 µg/mL
MIC [3]: > 128 µg/mL
MIC [4]: > 128 µg/mL
MIC [5]: > 128 µg/mL

CCCCC[n+]1ccc2c3ccccc3n(CC[N+](C)(C)CCCCC)c2c1.[Br-].[Br-]
MIC [1]: > 128 µg/mL
MIC [2]: > 128 µg/mL
MIC [3]: 128 µg/mL
MIC [4]: > 128 µg/mL
MIC [5]: > 128 µg/mL

CCC[n+]1ccc2c3ccccc3n(CCN(CC)CC)c2c1.[Br-]
MIC [1]: 128 µg/mL
MIC [2]: > 128 µg/mL
MIC [3]: 32 µg/mL
MIC [4]: 128 µg/mL
MIC [5]: 32 µg/mL

CCCC[n+]1ccc2c3ccccc3n(CC[N+](C)(C)CCCC)c2c1.[Br-].[Br-]
MIC [1]: 128 µg/mL
MIC [2]: > 128 µg/mL
MIC [3]: 128 µg/mL
MIC [4]: > 128 µg/mL
MIC [5]: > 128 µg/mL

C[n+]1ccc2c3ccccc3n(CC[N+](C)(C)C)c2c1.[I-].[I-]
MIC [1]: > 128 µg/mL
MIC [2]: > 128 µg/mL
MIC [3]: 128 µg/mL
MIC [4]: > 128 µg/mL
MIC [5]: > 128 µg/mL
